# Results as given in patent publication US20230091848A1, “DISEASE DETECTION AND TREATMENT BASED ON PHENYLACETYL GLUTAMINE LEVELS” (The Cleveland Clinic Foundation, priority 2020, published 2023).
# How the values were obtained:
# [1] = system: FeCl3-induced carotid artery injury model; experiment: Carotid artery FeCl3 injury thrombosis assay; format: in vivo, mice; details: carvedilol 1.5 g/kg for one week; PAGln i.p.
# Protocol: Briefly, rhodamine 6G (100 μL; 0.5 mg/mL) was injected directly into the right jugular vein to label platelets. The left carotid artery was exposed and injured by placing a FeCl3-soaked filter paper for 1 minute. […] Time to cessation of blood flow through clot formation for all studies was determined by visual inspection by two different investigators. End points were set as cessation of blood flow for 30 seconds to 30 minutes.
# MEG01 cells [2] = experiment: Dynamic mass redistribution (DMR) in MEG01 cells; format: cell-based, human
# Protocol: (§1) Before proceeding for the experiments, cells were subjected to overnight incubation in reduced serum media opti-MEM. […] The cells were briefly centrifuged at room temperature at low speed (100 g for 10-15 sec) to allow settling down the cells at the bottom of the plate. After that, cells were allowed to temperature equilibrate for 1 h at room temperature prior to run DMR measurement. Firstly, basal DMR responses were graphed for around 15 min to obtain a baseline read that defines the zero level and also ensures the signal is stable. […] DMR response signal was recorded for 60-90 minutes post compound of interest addition.
# HEL92.1.7 cells = experiment: Dynamic mass redistribution (DMR) in HEL92.1.7 cells; format: cell-based, human; details: increasing concentrations
# Protocol: as §1
# [3] = Metabolism of phenylacetic acid after i.p. injection; format: in vivo; details: intraperitoneal (i.p.) injection in mice
# [4] = system: human platelet rich plasma (PRP); experiment: Platelet aggregometry in platelet rich plasma; format: cell-based; details: inhibitor 10 μM; PAGln 100 μM; ADP 2 μM
# Protocol: ADP (up to 4 μM), TRAP6 (up to 10 μM) and collagen (up to 1.0 μg/mL) were used as indicated to initiate aggregation with constant stirring (600 rpm).
# MEG01 cells [5] = experiment: cAMP assay in MEG01 cells; format: cell-based, human
# Protocol: Real-time (RT) PCR in MEG01 cells: Total RNA was isolated from MEG01 cells following TRIZOL RNA isolation protocol post 40 h of siRNA transfection. […] Real time (RT) PCR was carried out following TaqMan Gene Expression Assays protocol using RT primers and probes of ADRA2A (assay Id Hs01099503_s1), ADRA2B (assay Id Hs00265081 s1) and ADRB2 (assay Id Hs00240532_s1) from ThermoFisher Scientific. cAMP assay in MEG01, Platelets and HEK293 cells: Intracellular cAMP levels were measured using CatchPoint Cyclic-AMP Fluorescent Assay Kit from molecular devices (Cat. R8089). Briefly, MEG01 cells were washed with 1×HBSS buffer with HEPES (20 mM; pH 7.4) and re-suspended in stimulation buffer (1×HBSS, HEPES (20 mM); pH 7.4, IBMX (0.5 mM), Rolipram (0.1 mM) and BSA (0.1%)). The cells were further seeded into 96 well cell culture plates with a density of ˜100 k cells per well in 100 μL stimulation buffer. Similarly, human washed platelets re-suspended very gently in stimulation buffer and seeded into a 96-well cell culture plates with ˜4-6 million platelets per well in 100 μL stimulation buffer. Both the MEG01 cells and platelets were kept thereafter at 37° C. incubator for 10 min before addition of the inhibitors or test compounds. Following incubation with stimulation buffer, 10 μL (10× concentration) of modulators/inhibitors (when necessary) were added and kept for 15 min at 37° C. […] The test compounds were made in buffer T (1×HBSS, HEPES (20 mM); pH 7.4, IBMX (0.5 mM) and Rolipram (0.1 mM)). The reaction was stopped by adding 50 μL of lysis buffer (provided in the kit CatchPoint Cyclic-AMP Fluorescent Assay Kit Cat. R8089-Molecular Devices), further added with IBMX (0.5 mM) and Rolipram (0.1 mM)) and agitated for 10 min in a plate shaker to facilitate cell lysis. Lysed cells are immediately proceeded to cAMP assay. For the quantification of cAMP, the lysed sample (40 μL), buffer control and cAMP calibrators were added in appropriate wells of a 96-well clear bottom, black wall cAMP assay plates (provided in the kit). Thereafter, reconstituted rabbit anti-cAMP antibody (40 μL) was added to all the wells and mix for 5 min on a plate shaker to ensure mixing. In the next step, reconstituted HRP-cAMP conjugate (40 μL) was added to every well, mixed properly and kept at room temperature for 2 h. The plate contents were aspirated thereafter and washed with wash buffer (300 μL (provided in the kit)) 4 times. Spotlight red substrate (provided in the kit) was added to each well minimizing the time between starting and finishing in dark. The plate was covered with aluminum foil and left at room temperature for at least 10 min before reading fluorescence intensity in a FlexStation 3 Multi-Mode Microplate Reader-Molecular devices. […] For cAMP assay in adherent cell lines, parental HEK293, and β2-HEK293 (stable) cells were seeded into 96-well cell culture microplates with approximately 50 k cells per well in DMEM (100 μL) media supplemented with FBS (10%), penicillin (100 U/mL) and streptomycin (100 μg/mL) in a humidified atmosphere at 37° C. in 5% CO2. Cells were grown for 24 h before proceeding for cAMP experiment following similar method as described for MEG01 cells. Intracellular Ca^2+ measurement: Intracellular Ca^2+ in MEG01, HEL92.1.7, parental HEK293, β2-HEK293 (stable) cells, empty vector (EV) transfected HEK293 cells, ADRA2A transfected HEK293 cells and in α2B-HEK293 stable cells was measured using FLIPR Calcium 5 Assay Kit-Molecular devices (Cat. R8186). […]
structure (smiles),measurement,setting,value
COc1ccccc1OCCNCC(O)COc1cccc2[nH]c3ccccc3c12 (centres unmarked) [carvedilol],pro-thrombotic effect of PAGln on clot formation rate and occlusion time,[1],reversed by pretreatment of mice with carvedilol
NC[C@H](O)c1ccc(O)c(O)c1 [norepinephrine],DMR dose response curves,MEG01 cells [2]; increasing concentrations,saturable and specific DMR dose response curves
same,DMR dose-response signal,HEL92.1.7 cells,like norepinephrine
O=C(O)Cc1ccccc1 [phenylacetic acid],metabolic fate,[3],predominantly metabolized into PAGly
N[C@@H](Cc1ccccc1)C(=O)O [phenylalanine],DMR response,MEG01 cells [2]; addition of ligand,displayed no DMR response
CC(C)NCC(O)COc1cccc2ccccc12 (centres unmarked) [propranolol],PAGln induced hyperresponsiveness of platelet aggregation,[4],attenuated the PAGln induced hyperresponsiveness
same,DMR response to ATP after ADR inhibitors,"MEG01 cells [2]; ATP 50 μM, inhibitor 10 μM",remained unchanged
same,DMR response of isoproterenol (ISO) after ADR inhibitors,"MEG01 cells [2]; ISO 10 μM, inhibitor 10 μM",diminished
same,PAGln-induced DMR response after ADR inhibitors,"MEG01 cells [2]; PAGln 100 μM, inhibitor 10 μM, 30 min",substantially reduced
same,"intracellular cAMP production after ISO treatment, with ADR inhibitors",MEG01 cells [5],reduced
same,PAGln induced intracellular cAMP production after ADR inhibitors,"MEG01 cells [5]; PAGln 100 μM, 5 min exposure, inhibitor 10 μM",inhibited PAGln (5 min exposure) induced intracellular cAMP production
